Data from patent US12077503B2, “Substituted cyclic amides and their use as herbicides” (FMC CORPORATION, priority 2015, dated 2024).

Tests used:
Assay type in all cases: in vivo
[1] = tested on: redroot pigweed (Amaranthus retroflexus); experiment: Test G Pre-Emergence Protocol; details: Amaranthus retroflexus, pre-emergence, 312 h, evaluated after 13 days
In short: (§1)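 Visual injury (0–100) at day 13 after a single pre-emergence spray. Rates: 15.625, 62.5, 250 g/ha in acetone–water 50:50 with 0.5% Tween 20. Growth conditions: 24/16° C, 14 h light, 65% humidity.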

corn (Zea mays) [2] = experiment: Test G Pre-Emergence Protocol; details: Zea mays, pre-emergence, 312 h, evaluated after 13 days
In short: as §1

[3] = tested on: velvetleaf (Abutilon theophrasti); experiment: Test G Pre-Emergence Protocol; details: Abutilon theophrasti, pre-emergence, 312 h, evaluated after 13 days
In short: as §1

[4] = tested on: ivy-leaved morning glory (Ipomoea hederacea); experiment: Test G Pre-Emergence Protocol; details: Ipomoea, pre-emergence, 312 h, evaluated after 13 days
In short: as §1

[5] = tested on: giant foxtail (Setaria faberi); experiment: Test G Pre-Emergence Protocol; details: Setaria faberi, pre-emergence, 312 h, evaluated after 13 days
In short: as §1

[6] = tested on: barnyardgrass (Echinochloa crus-galli); experiment: Test G Pre-Emergence Protocol; details: Echinochloa crus-galli, pre-emergence, 312 h, evaluated after 13 days
In short: as §1

[7] = tested on: redroot pigweed (Amaranthus retroflexus); experiment: Test G Post-Emergence Protocol; details: Amaranthus retroflexus, post-emergence, 312 h
In short: (§2)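 Sow in soil; grow 8 d (24/16 °C, 14 h light, 65% humidity); spray 15.625/62.5/250 g/ha in acetone:water 50:50 + 0.5% Tween 20; grow on, water twice daily; score damage 0–100 at 13 d.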

corn (Zea mays) [8] = experiment: Test G Post-Emergence Protocol; details: Zea mays, post-emergence, 312 h
In short: as §2

[9] = tested on: velvetleaf (Abutilon theophrasti); experiment: Test G Post-Emergence Protocol; details: Abutilon theophrasti, post-emergence, 312 h
In short: as §2

[10] = tested on: ivy-leaved morning glory (Ipomoea hederacea); experiment: Test G Post-Emergence Protocol; details: Ipomoea, post-emergence, 312 h
In short: as §2

[11] = tested on: giant foxtail (Setaria faberi); experiment: Test G Post-Emergence Protocol; details: Setaria faberi, post-emergence, 312 h
In short: as §2

[12] = tested on: barnyardgrass (Echinochloa crus-galli); experiment: Test G Post-Emergence Protocol; details: Echinochloa crus-galli, post-emergence, 312 h
In short: as §2

Cc1cc(Cl)ncc1NC(=O)[C@@H]1C(=O)N(C)C[C@H]1c1ccc(C(F)(F)F)cc1 (racemic) [Compound 1578]
pest or weed control at 15.625 g/ha ([1]; 15.625 g ai/ha, read-out: Pigweed, Redroot damage rating (100=total damage to plant; 0=no damage to plant)): 0% | pest or weed control at 62.5 g/ha ([1]; 62.5 g ai/ha, 100=total damage to plant, 0=no damage to plant, read-out: plant damage rating, Pigweed, Redroot): 0% | pest or weed control at 250 g/ha ([1]; 250 g ai/ha, read-out: Pigweed, Redroot damage rating (100=total damage to plant; 0=no damage to plant)): 20% | plant injury at 15.625 g/ha (corn (Zea mays) [2]; 15.625 g ai/ha, read-out: Corn damage rating (100=total damage to plant; 0=no damage to plant)): 0% | plant injury at 62.5 g/ha (corn (Zea mays) [2]; 62.5 g ai/ha, 100=total damage to plant, 0=no damage to plant, read-out: plant damage rating, Corn): 0% | plant injury at 250 g/ha (corn (Zea mays) [2]; 250 g ai/ha, read-out: Corn damage rating (100=total damage to plant; 0=no damage to plant)): 10% | pest or weed control at 15.625 g/ha ([3]; 15.625 g ai/ha, read-out: Velvetleaf damage rating (100=total damage to plant; 0=no damage to plant)): 0% | pest or weed control at 62.5 g/ha ([3]; 62.5 g ai/ha, 100=total damage to plant, 0=no damage to plant, read-out: plant damage rating, Velvetleaf): 0% | pest or weed control at 250 g/ha ([3]; 250 g ai/ha, read-out: Velvetleaf damage rating (100=total damage to plant; 0=no damage to plant)): 10% | pest or weed control at 15.625 g/ha ([4]; 15.625 g ai/ha, read-out: Morning-glory, Ivy-leaved damage rating (100=total damage to plant; 0=no damage to plant)): 0% | pest or weed control at 62.5 g/ha ([4]; 62.5 g ai/ha, 100=total damage to plant, 0=no damage to plant, read-out: plant damage rating, Morningglory, Ivy-leaved): 0% | pest or weed control at 250 g/ha ([4]; 250 g ai/ha, read-out: Morningglory, Ivy-leaved damage rating (100=total damage to plant; 0=no damage to plant)): 0% | pest or weed control at 15.625 g/ha ([5]; 15.625 g ai/ha, read-out: Foxtail, Giant damage rating (100=total damage to plant; 0=no damage to plant)): 0% | pest or weed control at 62.5 g/ha ([5]; 62.5 g ai/ha, 100=total damage to plant, 0=no damage to plant, read-out: plant damage rating, Foxtail, Giant): 0% | pest or weed control at 250 g/ha ([5]; 250 g ai/ha, read-out: Foxtail, Giant damage rating (100=total damage to plant; 0=no damage to plant)): 60% | pest or weed control at 15.625 g/ha ([6]; 15.625 g ai/ha, read-out: Barnyard grass damage rating (100=total damage to plant; 0=no damage to plant)): 0% | pest or weed control at 62.5 g/ha ([6]; 62.5 g ai/ha, 100=total damage to plant, 0=no damage to plant, read-out: plant damage rating, Barnyardgrass): 0% | pest or weed control at 250 g/ha ([6]; 250 g ai/ha, read-out: Barnyardgrass damage rating (100=total damage to plant; 0=no damage to plant)): 0% | pest or weed control at 15.625 g/ha ([7]; 15.625 g ai/ha, evaluated after 13 days (100=total damage to plant; 0=no damage to plant), read-out: Pigweed, Redroot damage rating): 0% | pest or weed control at 62.5 g/ha ([7]; 62.5 g ai/ha, evaluated after 13 days, read-out: Pigweed, Redroot damage rating (100=total damage to plant; 0=no damage to plant)): 20% | pest or weed control at 250 g/ha ([7]; 250 g ai/ha, evaluated after 13 days, read-out: damage to plant, Pigweed, Redroot (100=total damage to plant; 0=no damage to plant)): 30% | plant injury at 15.625 g/ha (corn (Zea mays) [8]; 15.625 g ai/ha, evaluated after 13 days (100=total damage to plant; 0=no damage to plant), read-out: Corn damage rating): 0% | plant injury at 62.5 g/ha (corn (Zea mays) [8]; 62.5 g ai/ha, evaluated after 13 days, read-out: Corn damage rating (100=total damage to plant; 0=no damage to plant)): 0% | plant injury at 250 g/ha (corn (Zea mays) [8]; 250 g ai/ha, evaluated after 13 days, read-out: damage to plant, Corn (100=total damage to plant; 0=no damage to plant)): 10% | pest or weed control at 15.625 g/ha ([9]; 15.625 g ai/ha, evaluated after 13 days (100=total damage to plant; 0=no damage to plant), read-out: Velvetleaf damage rating): 20% | pest or weed control at 62.5 g/ha ([9]; 62.5 g ai/ha, evaluated after 13 days, read-out: Velvetleaf damage rating (100=total damage to plant; 0=no damage to plant)): 10% | pest or weed control at 250 g/ha ([9]; 250 g ai/ha, evaluated after 13 days, read-out: damage to plant, Velvetleaf (100=total damage to plant; 0=no damage to plant)): 20% | pest or weed control at 15.625 g/ha ([10]; 15.625 g ai/ha, evaluated after 13 days (100=total damage to plant; 0=no damage to plant), read-out: Morningglory, Ivy-leaved damage rating): 0% | pest or weed control at 62.5 g/ha ([10]; 62.5 g ai/ha, evaluated after 13 days, read-out: Morningglory, Ivy-leaved damage rating (100=total damage to plant; 0=no damage to plant)): 10% | pest or weed control at 250 g/ha ([10]; 250 g ai/ha, evaluated after 13 days, read-out: damage to plant, Morningglory, Ivy-leaved (100=total damage to plant; 0=no damage to plant)): 30% | pest or weed control at 15.625 g/ha ([11]; 15.625 g ai/ha, evaluated after 13 days (100=total damage to plant; 0=no damage to plant), read-out: Foxtail, Giant damage rating): 0% | pest or weed control at 62.5 g/ha ([11]; 62.5 g ai/ha, evaluated after 13 days, read-out: Foxtail, Giant damage rating (100=total damage to plant; 0=no damage to plant)): 10% | pest or weed control at 250 g/ha ([11]; 250 g ai/ha, evaluated after 13 days, read-out: damage to plant, Foxtail, Giant (100=total damage to plant; 0=no damage to plant)): 60% | pest or weed control at 15.625 g/ha ([12]; 15.625 g ai/ha, evaluated after 13 days (100=total damage to plant; 0=no damage to plant), read-out: Barnyardgrass damage rating): 0% | pest or weed control at 62.5 g/ha ([12]; 62.5 g ai/ha, evaluated after 13 days, read-out: Barnyardgrass damage rating (100=total damage to plant; 0=no damage to plant)): 20% | pest or weed control at 250 g/ha ([12]; 250 g ai/ha, evaluated after 13 days, read-out: damage to plant, Barnyardgrass (100=total damage to plant; 0=no damage to plant)): 20%
